Results on 2 compounds are retold here after US20100204460A1, “NATURAL BRASSINOSTEROIDS FOR USE FOR TREATING HYPERPROLIFERATION, TREATING PROLIFERATIVE DISEASES AND REDUCING ADVERSE EFFECTS OF STEROID DYSFUNCTION IN MAMMALS, PHARMACEUTICAL COMPOSITION AND ITS USE” (priority 2007, published 2010).

Type in all cases: cell-based
The subject of assay [1] is LNCaP cells. Kind of assay: Cell cycle distribution by flow cytometry, LNCaP. Particulars: IC50, 24 h; for Apoptosis subG1 fraction: control 8%; for Cell cycle distribution S: control 14%; for Cell cycle distribution G2/M: control 16%; for Cell cycle distribution G1: control 70%. The source says: In the MCF-7 breast cancer cell line that has been the most widely studied experimental cell system, the typical growth inhibitory response to antiestrogens is decrease in the proportion of cells synthesising DNA (S phase) after antiestrogen treatment. This decrease in S phase coincides with an increase in the proportion of cells in G0/G1 phase. The activity of the androgen receptor (AR) is also regulated by alterations in cell signaling. There has been reported ligand independent activation of AR in prostate cancer cells by different growth factors. As the AR can be activated in the absence of hormone, it appears that the conditions may be more restricted than those observed for ER. Use of physiologic doses of ligand (dihydrotestosterone, DHT) is of importance as the LNCaP cells proliferate only at DHT concentration of 10^−9 M or lower. […] In contrast to proliferation, transactivation of AR specific target genes (e.g. PSA) continues to increase with DHT doses of 10^−10 M and higher. It might be accepted for estrogen or androgen receptors as stronger cytotoxic activities of brassinosteroids 9 or 6 on hormone-sensitive (MCF-7, LNCaP) compared to hormone-insensitive (MDA-MB-468, DU-145) cell lines were found. Therefore we explored the possibility of cell cycle perturbation by BRs in different cancer cell lines. Flow cytometry was used to evaluate the number of cells in the particular phases of the cell cycle, including subG1 peak detection. Control and treated cells were washed twice with cold PBS and centrifuged at 360×g for 10 min at 4° C., and fixed with chilled ethanol (70%; v/v) by low-speeded vortexing. For detection of DNA content analysis, propidium iodide staining was used. The cells were analyzed using a FACSCalibur flow cytometer (BD Biosciences, San Jose, Calif.).
Flow-cytometric detection of apoptosis. Several studies have declared that the induction of apoptosis may be cell cycle-dependent. Therefore, in our next series of experiments, we tested if brassinosteroids 9 or 6 cause apoptosis of the breast and prostate cancer cells via cell cycle blockage. From this reason we carried out DNA cell cycle analysis by flow cytometry based on detection of endonucleolytic DNA degradation that results in extraction of low molecular weight DNA from the cells. […] The subG1 peak containing apoptotic bodies was however not observed in MCF-7 cells.

Assay [2] relates to MCF-7 cells. The experiment in a line: TUNEL detection of apoptosis, MCF-7. The following applies: IC50 concentration. The method, then:
TdT-Mediated dUTP nick end labeling (TUNEL) detection of apoptosis index. For detection of apoptotic cells, the TUNEL assay was used. […] After period of treatment, the cells were washed with PBS and fixed on the slides with cold acetone-methanol (1:1, v/v) for 10 min. Apoptosis-induced nuclear DNA fragmentation was detected by terminal deoxynucleotidyl transferase-mediated UTP nick end labeling (TUNEL) technique according to the producer protocol (In Situ Cell Death Detection Kit; Roche Diagnostics, Mannheim, Germany). The cells were then washed three times in PBS and stained with 4′-6-diamidino-2-phenylindole (DAPI; 50 μg/ml; Sigma, St. Louis, Mo., USA) for 10 min in the dark. The coverslips with cells were washed in deionized water and mounted on glass slides, using the hydrophilic medium Mowiol (Calbiochem, Fremont, Calif., USA) in glycerol-PBS (1:3, v/v) for fluorescence. Cells were visualized using fluorescence microscopy and compared with control cells. TUNEL staining achieved to confirm apoptosis in all cell lines.

Assay [3] has as its system T-lymphoblastic leukaemia cell line CEM. Kind of assay: Calcein AM cytotoxicity assay, CEM. The following applies: CEM; six 4-fold dilutions, exposure 72 h (b71 says 96 h); mean ± SD; read-out: IC50 assessed by Calcein AM assay of surviving cells.
The test system of assay [4] is multiple myeloma cell line RPMI 8226. The experiment in a line: Calcein AM cytotoxicity assay, RPMI 8226. The following applies: RPMI 8226; exposure 72 h (b71 says 96 h); mean ± SD; read-out: IC50 assessed by Calcein AM assay of surviving cells.

On to `CC[C@@H](C(C)C)[C@@H](O)[C@H](O)[C@@H](C)[C@H]1CC[C@H]2[C@@H]3CC(=O)[C@H]4C[C@H](O)[C@H](O)C[C@]4(C)[C@H]3CC[C@]12C` [Brassinosteroid 9, 28-Homocastasterone], for which, in assay [1], the “Apoptosis subG1 fraction” value amounted to 18%, the “Cell cycle distribution S” value amounted to 2%, the “Cell cycle distribution G2/M” value turned out to be 4% and the “Cell cycle distribution G1” value is 94%. Also, the “percentage of TUNEL positive cells” value in assay [2] (6 h, control 0.0 ± 0.0) was found to be 10.6 ± 1.5 %. In addition, the “percentage of TUNEL positive cells” value in assay [2] (12 h, control 0.0 ± 0.0) is reported as 13.7 ± 3.8 %. In addition, the “percentage of TUNEL positive cells” value in assay [2] (24 h, control 0.3 ± 0.6) is recorded as 13.7 ± 2.6 %. For the same compound, in assay [3], the IC50 is 13 µM. Moreover, the concentration for half-maximal inhibition (IC50) in assay [4] was 26 ± 1.4 µM.
`CC(C)[C@@H](C)[C@@H](O)[C@H](O)[C@@H](C)[C@H]1CC[C@H]2[C@@H]3COC(=O)[C@H]4C[C@H](O)[C@H](O)C[C@]4(C)[C@H]3CC[C@]12C` [Brassinosteroid 6, 24-Epibrassinolide]: in assay [1], the “Apoptosis subG1 fraction” value is reported as 47%, the “Cell cycle distribution S” value is 5%, the “Cell cycle distribution G2/M” value came to 9% and the “Cell cycle distribution G1” value came to 86%. For the same compound, the “percentage of TUNEL positive cells” value in assay [2] (6 h, control 0.0 ± 0.0) worked out at 2.7 ± 1.2 %. Further, the “percentage of TUNEL positive cells” value in assay [2] (12 h, control 0.0 ± 0.0) came to 8.3 ± 3.1 %. In assay [2] (24 h, control 0.3 ± 0.6), the “percentage of TUNEL positive cells” value is 11.7 ± 3.8 %. Also, in assay [3], the IC50 is 44 ± 2.2 µM. For the same compound, the IC50 in assay [4] is above 50 µM.
